Data reported in PubChem BioAssay AID206 (DTP/NCI, 2004).
Results filed as inconclusive are left out.

Test system: nude mice, HT29 intrarenal xenograft, tumor weight T/C
Experiment: NCI In Vivo Anticancer Drug Screen. Data for tumor model HT29;CX-1 Human Adenocarcinoma (MER+) (intrarenal inoculation) in NU/NU Swiss (nude) mice
Details: endpoint: mean tumor weight change, higher = larger tumour
Procedure, shortened: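 Compounds were given to mice carrying transplantable tumors; a vehicle-dosed group served as control. The endpoint measured in each group was compared as a T/C quotient.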

[1] = dose: 300.0 mg/kg/injection, schedule: Q04DX004 (sc), vehicle: saline with Tween-80
[2] = dose: 1200.0 mg/kg/injection, schedule: Q04DX004 (sc), vehicle: saline with Tween-80

NC(=O)c1[nH]nc(C2OC(CO)C(O)C2O)c1O (centres undefined) was tested, and the T/C (dose: 10.0 mg/kg/injection, schedule: Q04DX004 (sc), vehicle: saline) was 73 % of control.

In the case of CNC(=O)OCc1c(COC(=O)NC)c(-c2ccc(Cl)c(Cl)c2)n2c1Cc1ccccc1C2, the T/C (dose: 300.0 mg/kg/injection, schedule: Q04DX004 (sc), vehicle: distilled water + Tween-80) is reported as 109 % of control, the T/C (dose: 600.0 mg/kg/injection, schedule: Q04DX004 (sc), vehicle: distilled water + Tween-80) is reported as 119 % of control and the T/C (dose: 1200.0 mg/kg/injection, schedule: Q04DX004 (sc), vehicle: distilled water + Tween-80) is reported as 61 % of control. The T/C (dose: 2400.0 mg/kg/injection, schedule: Q04DX004 (sc), vehicle: distilled water + Tween-80) was 65 % of control.

In the case of C[C@@]1(CO)[C@H](O)CC[C@@]2(C)[C@H]1CC[C@H]1C[C@@H]3C[C@@]12CC[C@@]3(O)COC(=O)CN, the T/C (dose: 8.0 mg/kg/injection, schedule: Q04DX004 (sc), vehicle: saline + alcohol) is reported as 226 % of control, the T/C (dose: 16.0 mg/kg/injection, schedule: Q04DX004 (sc), vehicle: saline + alcohol) is reported as 106 % of control and the T/C (dose: 32.0 mg/kg/injection, schedule: Q04DX004 (sc), vehicle: saline + alcohol) is reported as 94 % of control. The T/C (dose: 64.0 mg/kg/injection, schedule: Q04DX004 (sc), vehicle: saline + alcohol) was 218 % of control, the T/C (dose: 500.0 micrograms/kg/injection, schedule: Q04DX004 (sc), vehicle: saline + alcohol) was 97 % of control and the T/C (dose: 1000.0 micrograms/kg/injection, schedule: Q04DX004 (sc), vehicle: saline + alcohol) was 108 % of control. The T/C (dose: 2000.0 micrograms/kg/injection, schedule: Q04DX004 (sc), vehicle: saline + alcohol) was 101 % of control and the T/C (dose: 4000.0 micrograms/kg/injection, schedule: Q04DX004 (sc), vehicle: saline + alcohol) was 73 % of control.

In the case of Cc1ccc(S(=O)(=O)NC(=O)C2C(=O)CC3(CCCCC3)CC2=O)cc1, the T/C (dose: 150.0 mg/kg/injection, schedule: Q04DX004 (sc), vehicle: Klucel (hydroxypropylcellulose) (HPC)) is reported as 80 % of control, the T/C (dose: 300.0 mg/kg/injection, schedule: Q04DX004 (sc), vehicle: Klucel (hydroxypropylcellulose) (HPC)) is reported as 84 % of control and the T/C (dose: 600.0 mg/kg/injection, schedule: Q04DX004 (sc), vehicle: Klucel (hydroxypropylcellulose) (HPC)) is reported as 58 % of control.

With O=C(O)C1CSCN1 (centres undefined) the T/C (dose: 50.0 mg/kg/injection, schedule: Q01DX010 (sc), vehicle: water) was 96 % of control and the T/C (dose: 100.0 mg/kg/injection, schedule: Q01DX010 (sc), vehicle: water) was 105 % of control.

In the case of O=C1NC(=O)/C(=C/C=C/c2ccccc2)S1, the T/C (dose: 200.0 mg/kg/injection, schedule: Q04DX004 (sc), vehicle: saline with Tween-80) is reported as 76 % of control, the T/C (dose: 400.0 mg/kg/injection, schedule: Q04DX004 (sc), vehicle: saline with Tween-80) is reported as 68 % of control and the T/C (dose: 800.0 mg/kg/injection, schedule: Q04DX004 (sc), vehicle: saline with Tween-80) is reported as 94 % of control. The T/C (dose: 1600.0 mg/kg/injection, schedule: Q04DX004 (sc), vehicle: saline with Tween-80) was 83 % of control.

CCCCn1cnc2c(=S)nc[nH]c21 was tested, and the T/C (dose: 150.0 mg/kg/injection, schedule: Q04DX004 (sc), vehicle: suspension in saline) was 68 % of control, the T/C (dose: 300.0 mg/kg/injection, schedule: Q04DX004 (sc), vehicle: suspension in saline) was 120 % of control and the T/C (dose: 600.0 mg/kg/injection, schedule: Q04DX004 (sc), vehicle: suspension in saline) was 150 % of control.

C1CN2CCC1CC2 was tested, and the T/C (dose: 9.38 mg/kg/injection, schedule: Q04DX004 (sc), vehicle: saline with Tween-80) was 65 % of control and the T/C (dose: 18.75 mg/kg/injection, schedule: Q04DX004 (sc), vehicle: saline with Tween-80) was 82 % of control.

In the case of Cc1ccc(NC(=O)Oc2ccc(Br)cc2Br)c([N+](=O)[O-])c1, the T/C [1] is reported as 35 % of control, the T/C (dose: 600.0 mg/kg/injection, schedule: Q04DX004 (sc), vehicle: saline with Tween-80) is reported as 52 % of control and the T/C [2] is reported as 69 % of control.

In the case of COc1ccc(-c2csc(=[N+]3CCCCC3)s2)cc1, the T/C (dose: 6.25 mg/kg/injection, schedule: Q04DX004 (sc), vehicle: water) is reported as 227 % of control and the T/C (dose: 12.5 mg/kg/injection, schedule: Q04DX004 (sc), vehicle: water) is reported as 118 % of control.

O=C1NC(O)CCN1C1OC(CO)C(O)C1O (centres undefined) was tested, and the T/C (dose: 200.0 mg/kg/injection, schedule: Q01DX010 (sc), vehicle: water) was 83 % of control, the T/C (dose: 400.0 mg/kg/injection, schedule: Q01DX010 (sc), vehicle: water) was 70 % of control and the T/C (dose: 800.0 mg/kg/injection, schedule: Q01DX010 (sc), vehicle: water) was 63 % of control. For the same compound, the T/C (dose: 1600.0 mg/kg/injection, schedule: Q01DX010 (sc), vehicle: water) was 67 % of control.

With COC(=O)C[C@](O)(CCCC(C)(C)O)C(=O)O[C@@H]1C(OC)=C[C@]23CCCN2CCc2cc4c(cc2[C@H]13)OCO4 the T/C (dose: 0.5 mg/kg/injection, schedule: Q01DX010 (sc), vehicle: saline) was 41 % of control.

With O=C1SC(c2ccccc2)=S=C1c1ccccc1 the T/C [1] was 102 % of control and the T/C [2] was 90 % of control.
